Biological target: T1, recombinant PTP1B (catalytic domain) (Homo sapiens, UniProt P18031)
T1 construct: The enzymatic activities of the PTP1B catalytic domain were determined at 30 °C by monitoring the hydrolysis of pNPP
T1 sequence (P18031 3-277 limits assumed): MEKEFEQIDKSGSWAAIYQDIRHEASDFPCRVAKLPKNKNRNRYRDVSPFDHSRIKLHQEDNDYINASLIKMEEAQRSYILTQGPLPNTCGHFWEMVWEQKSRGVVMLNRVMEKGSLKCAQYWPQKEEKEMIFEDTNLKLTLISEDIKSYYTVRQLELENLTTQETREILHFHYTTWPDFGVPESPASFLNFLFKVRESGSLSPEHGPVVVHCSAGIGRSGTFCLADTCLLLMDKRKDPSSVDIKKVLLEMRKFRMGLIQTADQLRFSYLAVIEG
Test: PTP1B inhibitory assay (pNPP hydrolysis)
Type: biochemical
Details: in vitro; pNPP substrate, 30 °C, pH 6.5
Experimental: The enzymatic activities of the PTP1B catalytic domain were determined at 30 °C by monitoring the hydrolysis of pNPP. Dephosphorylation of pNPP generates product pNP, which was monitored at an absorbance of 405 nm. In a typical 100 μL assay mixture containing 50 mmol/L 3-[N-morpholino] propanesulfonic acid (MOPs), pH 6.5, 2 mmol/L pNPP, and 30 nmol/L recombinant PTP1B, activities were continuously monitored and the initial rate of the hydrolysis was determined using the early linear region of the enzymatic reaction kinetic curve.

SMILES	IC50 [µM]
CC(C)=CCC/C(C)=C/CC/C(C)=C/CC\C(C=O)=C/C=C/C(C=O)=C/N [Compound 5]	8.7
CC(C)=CCC/C(C)=C/CC/C(C)=C/CCc1ccc(O)c(CC(=O)O)c1 [Compound 4]	14
CC(C)=CCCC(C)=CCCC(C)=CCCC1=CCC2OC1NC=C2C=O (stereo not drawn) [Compound 1]	5.2
CC(C)=CCCC(C)=CCCC(C)=CCCC1=CCC(O)C2(C(N)=O)CC(=O)OC12 (stereo not drawn) [Compound 2]	> 50
CC(C)=CCCC(C)=CCCC(C)=CCCC1=CCC(O)C2(C(=O)O)CC(=O)NC12 (stereo not drawn) [Compound 3]	33

System: HCT-116 cell line
Test: cytotoxicity against HCT-116 cancer cell line
Type: cell-based
Details: Homo sapiens

SMILES	IC50 [µM]
CC(C)=CCCC(C)=CCCC(C)=CCCC1=CCC2OC1NC=C2C=O (stereo not drawn) [Compound 1]	11.6

Reference: paper PMC4113817, “New Hippolide Derivatives with Protein Tyrosine Phosphatase 1B Inhibitory Activity from the Marine Sponge Hippospongia lachne” (Marine Drugs, 2014)
